Reference: ChEMBL document CHEMBL1799957, “Cerebrosides and 2-pyridone alkaloids from the halotolerant fungus Penicillium chrysogenum grown in a hypersaline medium” (J Nat Prod, 2011)
≈ marks a conversion by molar mass, not a printed value.

These compounds were tested on P388 (assay: Cytotoxicity against mouse P388 cells by MTT assay).
Assay type: functional, cell-based

SMILES | IC50 [µM]
CCCCCCC/C=C\CC/C=C/[C@@H](O)[C@H](CO[C@@H]1O[C@H](CO)[C@@H](O)[C@H](O)[C@H]1O)NC(=O)[C@H](O)/C=C/CCCCCCCCCCCCCC [CHRYSOGESIDE A] | > 50
CCCCCCCCCCCCCCC/C=C/[C@@H](O)C(=O)N[C@@H](CO[C@@H]1O[C@H](CO)[C@@H](O)[C@H](O)[C@H]1O)[C@H](O)/C=C/CC/C=C(\C)CCCCCC [CHRYSOGESIDE B] | > 50
CCCCCCCCCCCCCCC/C=C/[C@@H](O)C(=O)N[C@@H](CO[C@@H]1O[C@H](CO)[C@@H](O)[C@H](O)[C@H]1O)[C@H](O)/C=C/CC/C=C(\C)CCCCC [CHRYSOGESIDE C] | > 50
CCCCCCCCCCCCCCC/C=C/[C@@H](O)C(=O)N[C@@H](CO[C@@H]1O[C@H](CO)[C@@H](O)[C@H](O)[C@H]1O)[C@H](O)/C=C/CC/C=C(\C)CCCCCCCC [CHRYSOGESIDE D] | > 50
CCCCCCCCCCCCCCCCC[C@@H](O)C(=O)N[C@@H](CO[C@@H]1O[C@H](CO)[C@@H](O)[C@H](O)[C@H]1O)[C@H](O)/C=C/CC/C=C(\C)CCCCCC [CHRYSOGESIDE E] | > 50

The compounds below were run on HeLa (assay: Cytotoxicity against human HeLa cells by MTT assay).
Assay type: functional, cell-based

SMILES | IC50 [µM]
CCCCCCC/C=C\CC/C=C/[C@@H](O)[C@H](CO[C@@H]1O[C@H](CO)[C@@H](O)[C@H](O)[C@H]1O)NC(=O)[C@H](O)/C=C/CCCCCCCCCCCCCC [CHRYSOGESIDE A] | > 50
CCCCCCCCCCCCCCC/C=C/[C@@H](O)C(=O)N[C@@H](CO[C@@H]1O[C@H](CO)[C@@H](O)[C@H](O)[C@H]1O)[C@H](O)/C=C/CC/C=C(\C)CCCCCC [CHRYSOGESIDE B] | > 50
CCCCCCCCCCCCCCC/C=C/[C@@H](O)C(=O)N[C@@H](CO[C@@H]1O[C@H](CO)[C@@H](O)[C@H](O)[C@H]1O)[C@H](O)/C=C/CC/C=C(\C)CCCCC [CHRYSOGESIDE C] | > 50
CCCCCCCCCCCCCCC/C=C/[C@@H](O)C(=O)N[C@@H](CO[C@@H]1O[C@H](CO)[C@@H](O)[C@H](O)[C@H]1O)[C@H](O)/C=C/CC/C=C(\C)CCCCCCCC [CHRYSOGESIDE D] | > 50
CCCCCCCCCCCCCCCCC[C@@H](O)C(=O)N[C@@H](CO[C@@H]1O[C@H](CO)[C@@H](O)[C@H](O)[C@H]1O)[C@H](O)/C=C/CC/C=C(\C)CCCCCC [CHRYSOGESIDE E] | > 50

Each compound was assayed on HL-60 (assay: Cytotoxicity against human HL60 cells by MTT assay).
Assay type: functional, cell-based

SMILES | IC50 [µM]
CCC[C@H](O)c1ccc(=O)[nH]c1C [CHRYSOGEDONE A] | > 50
CCC[C@H](O)c1ccc(=O)[nH]c1CO [CHRYSOGEDONE B] | > 50

Each compound was assayed on A549 (assay: Cytotoxicity against human A549 cells by SRB assay).
Assay type: functional, cell-based

SMILES | IC50 [µM]
CCC[C@H](O)c1ccc(=O)[nH]c1C [CHRYSOGEDONE A] | > 50
CCC[C@H](O)c1ccc(=O)[nH]c1CO [CHRYSOGEDONE B] | > 50

Each compound was assayed on Staphylococcus aureus (assay: Antimicrobial activity against Staphylococcus aureus by agar dilution method).
Assay type: functional

SMILES | MIC [µM]
CCC[C@H](O)c1ccc(=O)[nH]c1C [CHRYSOGEDONE A] | > 150
CCC[C@H](O)c1ccc(=O)[nH]c1CO [CHRYSOGEDONE B] | > 150
CCCCCCC/C=C\CC/C=C/[C@@H](O)[C@H](CO[C@@H]1O[C@H](CO)[C@@H](O)[C@H](O)[C@H]1O)NC(=O)[C@H](O)/C=C/CCCCCCCCCCCCCC [CHRYSOGESIDE A] | > 150
CCCCCCCCCCCCCCC/C=C/[C@@H](O)C(=O)N[C@@H](CO[C@@H]1O[C@H](CO)[C@@H](O)[C@H](O)[C@H]1O)[C@H](O)/C=C/CC/C=C(\C)CCCCCC [CHRYSOGESIDE B] | > 150
CCCCCCCCCCCCCCC/C=C/[C@@H](O)C(=O)N[C@@H](CO[C@@H]1O[C@H](CO)[C@@H](O)[C@H](O)[C@H]1O)[C@H](O)/C=C/CC/C=C(\C)CCCCC [CHRYSOGESIDE C] | > 150
CCCCCCCCCCCCCCC/C=C/[C@@H](O)C(=O)N[C@@H](CO[C@@H]1O[C@H](CO)[C@@H](O)[C@H](O)[C@H]1O)[C@H](O)/C=C/CC/C=C(\C)CCCCCCCC [CHRYSOGESIDE D] | > 150
CCCCCCCCCCCCCCCCC[C@@H](O)C(=O)N[C@@H](CO[C@@H]1O[C@H](CO)[C@@H](O)[C@H](O)[C@H]1O)[C@H](O)/C=C/CC/C=C(\C)CCCCCC [CHRYSOGESIDE E] | > 150

These compounds were tested on Escherichia coli (assay: Antimicrobial activity against Escherichia coli by agar dilution method).
Assay type: functional

SMILES | MIC [µM]
CCC[C@H](O)c1ccc(=O)[nH]c1C [CHRYSOGEDONE A] | > 150
CCC[C@H](O)c1ccc(=O)[nH]c1CO [CHRYSOGEDONE B] | > 150
CCCCCCC/C=C\CC/C=C/[C@@H](O)[C@H](CO[C@@H]1O[C@H](CO)[C@@H](O)[C@H](O)[C@H]1O)NC(=O)[C@H](O)/C=C/CCCCCCCCCCCCCC [CHRYSOGESIDE A] | > 150
CCCCCCCCCCCCCCC/C=C/[C@@H](O)C(=O)N[C@@H](CO[C@@H]1O[C@H](CO)[C@@H](O)[C@H](O)[C@H]1O)[C@H](O)/C=C/CC/C=C(\C)CCCCCC [CHRYSOGESIDE B] | > 150
CCCCCCCCCCCCCCC/C=C/[C@@H](O)C(=O)N[C@@H](CO[C@@H]1O[C@H](CO)[C@@H](O)[C@H](O)[C@H]1O)[C@H](O)/C=C/CC/C=C(\C)CCCCC [CHRYSOGESIDE C] | > 150
CCCCCCCCCCCCCCC/C=C/[C@@H](O)C(=O)N[C@@H](CO[C@@H]1O[C@H](CO)[C@@H](O)[C@H](O)[C@H]1O)[C@H](O)/C=C/CC/C=C(\C)CCCCCCCC [CHRYSOGESIDE D] | > 150
CCCCCCCCCCCCCCCCC[C@@H](O)C(=O)N[C@@H](CO[C@@H]1O[C@H](CO)[C@@H](O)[C@H](O)[C@H]1O)[C@H](O)/C=C/CC/C=C(\C)CCCCCC [CHRYSOGESIDE E] | > 150

Each compound was assayed on Klebsiella aerogenes (assay: Antimicrobial activity against Enterobacter aerogenes by agar dilution method).
Assay type: functional

SMILES | MIC [µM]
CCC[C@H](O)c1ccc(=O)[nH]c1C [CHRYSOGEDONE A] | > 150
CCC[C@H](O)c1ccc(=O)[nH]c1CO [CHRYSOGEDONE B] | > 150
CCCCCCC/C=C\CC/C=C/[C@@H](O)[C@H](CO[C@@H]1O[C@H](CO)[C@@H](O)[C@H](O)[C@H]1O)NC(=O)[C@H](O)/C=C/CCCCCCCCCCCCCC [CHRYSOGESIDE A] | > 150
CCCCCCCCCCCCCCC/C=C/[C@@H](O)C(=O)N[C@@H](CO[C@@H]1O[C@H](CO)[C@@H](O)[C@H](O)[C@H]1O)[C@H](O)/C=C/CC/C=C(\C)CCCCCC [CHRYSOGESIDE B] | 1.72 (≈ 1.25 µg/mL)
CCCCCCCCCCCCCCC/C=C/[C@@H](O)C(=O)N[C@@H](CO[C@@H]1O[C@H](CO)[C@@H](O)[C@H](O)[C@H]1O)[C@H](O)/C=C/CC/C=C(\C)CCCCC [CHRYSOGESIDE C] | > 150
CCCCCCCCCCCCCCC/C=C/[C@@H](O)C(=O)N[C@@H](CO[C@@H]1O[C@H](CO)[C@@H](O)[C@H](O)[C@H]1O)[C@H](O)/C=C/CC/C=C(\C)CCCCCCCC [CHRYSOGESIDE D] | > 150
CCCCCCCCCCCCCCCCC[C@@H](O)C(=O)N[C@@H](CO[C@@H]1O[C@H](CO)[C@@H](O)[C@H](O)[C@H]1O)[C@H](O)/C=C/CC/C=C(\C)CCCCCC [CHRYSOGESIDE E] | > 150

Each compound was assayed on Bacillus subtilis (assay: Antimicrobial activity against Bacillus subtilis by agar dilution method).
Assay type: functional

SMILES | MIC [µM]
CCC[C@H](O)c1ccc(=O)[nH]c1C [CHRYSOGEDONE A] | > 150
CCC[C@H](O)c1ccc(=O)[nH]c1CO [CHRYSOGEDONE B] | > 150
CCCCCCC/C=C\CC/C=C/[C@@H](O)[C@H](CO[C@@H]1O[C@H](CO)[C@@H](O)[C@H](O)[C@H]1O)NC(=O)[C@H](O)/C=C/CCCCCCCCCCCCCC [CHRYSOGESIDE A] | > 150
CCCCCCCCCCCCCCC/C=C/[C@@H](O)C(=O)N[C@@H](CO[C@@H]1O[C@H](CO)[C@@H](O)[C@H](O)[C@H]1O)[C@H](O)/C=C/CC/C=C(\C)CCCCCC [CHRYSOGESIDE B] | > 150
CCCCCCCCCCCCCCC/C=C/[C@@H](O)C(=O)N[C@@H](CO[C@@H]1O[C@H](CO)[C@@H](O)[C@H](O)[C@H]1O)[C@H](O)/C=C/CC/C=C(\C)CCCCC [CHRYSOGESIDE C] | > 150
CCCCCCCCCCCCCCC/C=C/[C@@H](O)C(=O)N[C@@H](CO[C@@H]1O[C@H](CO)[C@@H](O)[C@H](O)[C@H]1O)[C@H](O)/C=C/CC/C=C(\C)CCCCCCCC [CHRYSOGESIDE D] | > 150
CCCCCCCCCCCCCCCCC[C@@H](O)C(=O)N[C@@H](CO[C@@H]1O[C@H](CO)[C@@H](O)[C@H](O)[C@H]1O)[C@H](O)/C=C/CC/C=C(\C)CCCCCC [CHRYSOGESIDE E] | > 150

The compounds below were run on Pseudomonas aeruginosa (assay: Antimicrobial activity against Pseudomonas aeruginosa by agar dilution method).
Assay type: functional

SMILES | MIC [µM]
CCC[C@H](O)c1ccc(=O)[nH]c1C [CHRYSOGEDONE A] | > 150
CCC[C@H](O)c1ccc(=O)[nH]c1CO [CHRYSOGEDONE B] | > 150
CCCCCCC/C=C\CC/C=C/[C@@H](O)[C@H](CO[C@@H]1O[C@H](CO)[C@@H](O)[C@H](O)[C@H]1O)NC(=O)[C@H](O)/C=C/CCCCCCCCCCCCCC [CHRYSOGESIDE A] | > 150
CCCCCCCCCCCCCCC/C=C/[C@@H](O)C(=O)N[C@@H](CO[C@@H]1O[C@H](CO)[C@@H](O)[C@H](O)[C@H]1O)[C@H](O)/C=C/CC/C=C(\C)CCCCCC [CHRYSOGESIDE B] | > 150
CCCCCCCCCCCCCCC/C=C/[C@@H](O)C(=O)N[C@@H](CO[C@@H]1O[C@H](CO)[C@@H](O)[C@H](O)[C@H]1O)[C@H](O)/C=C/CC/C=C(\C)CCCCC [CHRYSOGESIDE C] | > 150
CCCCCCCCCCCCCCC/C=C/[C@@H](O)C(=O)N[C@@H](CO[C@@H]1O[C@H](CO)[C@@H](O)[C@H](O)[C@H]1O)[C@H](O)/C=C/CC/C=C(\C)CCCCCCCC [CHRYSOGESIDE D] | > 150
CCCCCCCCCCCCCCCCC[C@@H](O)C(=O)N[C@@H](CO[C@@H]1O[C@H](CO)[C@@H](O)[C@H](O)[C@H]1O)[C@H](O)/C=C/CC/C=C(\C)CCCCCC [CHRYSOGESIDE E] | > 150

What follows are compounds tested on Candida albicans (assay: Antimicrobial activity against Candida albicans by agar dilution method).
Assay type: functional

SMILES | MIC [µM]
CCC[C@H](O)c1ccc(=O)[nH]c1C [CHRYSOGEDONE A] | > 150
CCC[C@H](O)c1ccc(=O)[nH]c1CO [CHRYSOGEDONE B] | > 150
CCCCCCC/C=C\CC/C=C/[C@@H](O)[C@H](CO[C@@H]1O[C@H](CO)[C@@H](O)[C@H](O)[C@H]1O)NC(=O)[C@H](O)/C=C/CCCCCCCCCCCCCC [CHRYSOGESIDE A] | > 150
CCCCCCCCCCCCCCC/C=C/[C@@H](O)C(=O)N[C@@H](CO[C@@H]1O[C@H](CO)[C@@H](O)[C@H](O)[C@H]1O)[C@H](O)/C=C/CC/C=C(\C)CCCCCC [CHRYSOGESIDE B] | > 150
CCCCCCCCCCCCCCC/C=C/[C@@H](O)C(=O)N[C@@H](CO[C@@H]1O[C@H](CO)[C@@H](O)[C@H](O)[C@H]1O)[C@H](O)/C=C/CC/C=C(\C)CCCCC [CHRYSOGESIDE C] | > 150
CCCCCCCCCCCCCCC/C=C/[C@@H](O)C(=O)N[C@@H](CO[C@@H]1O[C@H](CO)[C@@H](O)[C@H](O)[C@H]1O)[C@H](O)/C=C/CC/C=C(\C)CCCCCCCC [CHRYSOGESIDE D] | > 150
CCCCCCCCCCCCCCCCC[C@@H](O)C(=O)N[C@@H](CO[C@@H]1O[C@H](CO)[C@@H](O)[C@H](O)[C@H]1O)[C@H](O)/C=C/CC/C=C(\C)CCCCCC [CHRYSOGESIDE E] | > 150
